From PubChem BioAssay (NCI)
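Five concentrations, 48 hours, 96-well plates. TGI: concentration producing complete growth inhibition.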

Legend:
Assay in all cases: growth of human tumour cells (NCI), 48 h
[1] = test system: DMS 273 small cell lung
[2] = test system: NCI-H522 lung
[3] = test system: HOP-18 NSCLC
[4] = test system: UACC-257 melanoma
[5] = test system: SNB-19 CNS
[6] = test system: HOP-62 NSCLC
[7] = test system: NCI-H226 lung
[8] = test system: IGROV1 ovarian
[9] = test system: 786-0 renal
[10] = test system: KM20L2 colon
[11] = test system: KM12 colon
[12] = test system: A498 renal
[13] = test system: CCRF-CEM leukemia
[14] = test system: OVCAR-5 ovarian
[15] = test system: XF 498 CNS
[16] = test system: LOX IMVI melanoma
[17] = test system: RPMI-8226 leukemia
[18] = test system: NCI-H23 lung
[19] = test system: UACC-62 melanoma
[20] = test system: NCI-H460 lung
[21] = test system: SF-539 CNS
[22] = test system: COLO 205 colon
[23] = test system: OVCAR-3 ovarian
[24] = test system: DLD-1 colon
[25] = test system: DMS 114 small cell lung
[26] = test system: CAKI-1 renal
[27] = test system: SK-MEL-5 melanoma
[28] = test system: K-562 leukemia
[29] = test system: HT29 colon
[30] = test system: HCC-2998 colon
[31] = test system: EKVX NSCLC
[32] = test system: A549 NSCLC
[33] = test system: SK-MEL-2 melanoma
[34] = test system: MOLT-4 leukemia
[35] = test system: SK-MEL-28 melanoma
[36] = test system: MALME-3M melanoma
[37] = test system: SN12C renal
[38] = test system: UO-31 renal
[39] = test system: LXFL 529 NSCLC
[40] = test system: TK-10 renal
[41] = test system: ACHN renal
[42] = test system: OVCAR-4 ovarian
[43] = test system: SF-295 CNS
[44] = test system: U251 CNS
[45] = test system: M19-MEL melanoma
[46] = test system: HOP-92 NSCLC
[47] = test system: SW-620 colon
[48] = test system: SNB-75 CNS
[49] = test system: M14 melanoma
[50] = test system: HCT-15 colon
[51] = test system: SF-268 CNS
[52] = test system: HL-60(TB) leukemia
[53] = test system: SNB-78 CNS
[54] = test system: OVCAR-8 ovarian
[55] = test system: SK-OV-3 ovarian
[56] = test system: RXF-631 renal
[57] = test system: SR leukemia
[58] = test system: HCT-116 colon
[59] = test system: RXF 393 renal

In the case of `CCOc1ccc2c(c1)[n+]([O-])c(-c1nc3ccccc3s1)c(N)[n+]2[O-]`, the TGI [1] is reported as > 100 µM, the TGI [2] is reported as 63.3 µM and the TGI [3] is reported as 92.1 µM. For the same compound, the TGI [4] was > 100 µM, the TGI [5] was > 100 µM and the TGI [6] was > 100 µM. For the same compound, the TGI [7] was > 100 µM, the TGI [8] was > 100 µM and the TGI [9] was > 100 µM. The TGI [10] was > 100 µM, the TGI [11] was > 100 µM and the TGI [12] was > 100 µM. For the same compound, the TGI [13] was > 100 µM, the TGI [14] was > 100 µM and the TGI [15] was 86.6 µM. For the same compound, the TGI [16] was > 100 µM, the TGI [17] was > 100 µM and the TGI [18] was > 100 µM. The TGI [19] was > 100 µM, the TGI [20] was > 100 µM and the TGI [21] was > 100 µM. For the same compound, the TGI [22] was > 100 µM, the TGI [23] was > 100 µM and the TGI [24] was > 100 µM. The TGI [25] was > 100 µM, the TGI [26] was > 100 µM and the TGI [27] was 93.8 µM. For the same compound, the TGI [28] was > 100 µM, the TGI [29] was > 100 µM and the TGI [30] was > 100 µM. The TGI [31] was > 100 µM, the TGI [32] was > 100 µM and the TGI [33] was > 100 µM. The TGI [34] was > 100 µM, the TGI [35] was > 100 µM and the TGI [36] was > 100 µM. For the same compound, the TGI [37] was > 100 µM, the TGI [38] was 96.3 µM and the TGI [39] was > 100 µM. The TGI [40] was > 100 µM, the TGI [41] was > 100 µM and the TGI [42] was > 100 µM. For the same compound, the TGI [43] was > 100 µM, the TGI [44] was > 100 µM and the TGI [45] was > 100 µM. The TGI [46] was 70.1 µM, the TGI [47] was > 100 µM and the TGI [48] was > 100 µM. The TGI [49] was > 100 µM, the TGI [50] was > 100 µM and the TGI [51] was > 100 µM. For the same compound, the TGI [52] was > 100 µM, the TGI [53] was > 100 µM and the TGI [54] was > 100 µM. For the same compound, the TGI [55] was > 100 µM.
In the case of `N#CCc1ccc(C(C#N)/C(CCCC(=O)Nc2cccc([N+](=O)[O-])c2)=N/NC(N)=S)cc1` (configuration not stated), the TGI [1] is reported as > 100 µM, the TGI [2] is reported as > 100 µM and the TGI [3] is reported as > 100 µM. For the same compound, the TGI [4] was > 100 µM, the TGI [5] was > 100 µM and the TGI [6] was > 100 µM. The TGI [7] was > 100 µM, the TGI [8] was > 100 µM and the TGI [9] was > 100 µM. The TGI [10] was > 100 µM, the TGI [11] was > 100 µM and the TGI [12] was > 100 µM. For the same compound, the TGI [13] was > 100 µM, the TGI [14] was > 100 µM and the TGI [16] was > 100 µM. The TGI [17] was > 100 µM, the TGI [18] was > 100 µM and the TGI [56] was > 100 µM. For the same compound, the TGI [19] was > 100 µM, the TGI [20] was > 100 µM and the TGI [21] was > 100 µM. For the same compound, the TGI [22] was > 100 µM, the TGI [23] was > 100 µM and the TGI [24] was > 100 µM. The TGI [25] was > 100 µM, the TGI [26] was > 100 µM and the TGI [27] was > 100 µM. The TGI [28] was > 100 µM, the TGI [29] was > 100 µM and the TGI [57] was > 100 µM. The TGI [30] was > 100 µM, the TGI [31] was > 100 µM and the TGI [32] was > 100 µM. The TGI [33] was > 100 µM, the TGI [34] was > 100 µM and the TGI [35] was > 100 µM. For the same compound, the TGI [36] was > 100 µM, the TGI [37] was > 100 µM and the TGI [38] was > 100 µM. For the same compound, the TGI [39] was > 100 µM, the TGI [40] was > 100 µM and the TGI [58] was > 100 µM. For the same compound, the TGI [41] was > 100 µM, the TGI [42] was > 100 µM and the TGI [43] was > 100 µM. The TGI [44] was > 100 µM, the TGI [59] was > 100 µM and the TGI [46] was > 100 µM. The TGI [47] was > 100 µM, the TGI [48] was > 100 µM and the TGI [49] was > 100 µM. For the same compound, the TGI [50] was > 100 µM, the TGI [51] was > 100 µM and the TGI [52] was > 100 µM. For the same compound, the TGI [53] was > 100 µM and the TGI [55] was > 100 µM.
`COc1ccc2c3c(coc13)C(CCC(=O)O)CC2` (configuration not stated) was tested, and the TGI [1] was > 100 µM, the TGI [3] was > 100 µM and the TGI [4] was > 100 µM. For the same compound, the TGI [5] was > 100 µM, the TGI [6] was > 100 µM and the TGI [8] was > 100 µM. The TGI [9] was > 100 µM, the TGI [10] was > 100 µM and the TGI [12] was > 100 µM. The TGI [15] was > 100 µM, the TGI [16] was > 100 µM and the TGI [18] was > 100 µM. The TGI [56] was > 100 µM, the TGI [19] was > 100 µM and the TGI [20] was > 100 µM. For the same compound, the TGI [21] was > 100 µM, the TGI [22] was > 100 µM and the TGI [23] was > 100 µM. For the same compound, the TGI [24] was > 100 µM, the TGI [25] was > 100 µM and the TGI [26] was > 100 µM. The TGI [27] was > 100 µM, the TGI [29] was > 100 µM and the TGI [30] was > 100 µM. For the same compound, the TGI [31] was > 100 µM, the TGI [32] was > 100 µM and the TGI [35] was > 100 µM. The TGI [37] was > 100 µM, the TGI [39] was > 100 µM and the TGI [40] was > 100 µM. The TGI [58] was > 100 µM, the TGI [41] was > 100 µM and the TGI [42] was > 100 µM. For the same compound, the TGI [43] was > 100 µM, the TGI [44] was > 100 µM and the TGI [45] was > 100 µM. For the same compound, the TGI [59] was > 100 µM, the TGI [47] was > 100 µM and the TGI [48] was > 100 µM. For the same compound, the TGI [49] was > 100 µM, the TGI [50] was > 100 µM and the TGI [53] was > 100 µM. The TGI [54] was > 100 µM and the TGI [55] was > 100 µM.
In the case of `COC(=O)C(=O)C(C(=O)C=C(C)C)C(=O)C(=O)Nc1ccc(C)cc1C` (configuration not stated), the TGI [1] is reported as > 100 µM, the TGI [2] is reported as > 100 µM and the TGI [3] is reported as > 100 µM. The TGI [4] was > 100 µM, the TGI [5] was > 100 µM and the TGI [6] was > 100 µM. The TGI [7] was > 100 µM, the TGI [8] was > 100 µM and the TGI [9] was > 100 µM. The TGI [10] was > 100 µM, the TGI [11] was > 100 µM and the TGI [12] was > 100 µM. The TGI [13] was > 100 µM, the TGI [14] was > 100 µM and the TGI [15] was > 100 µM. For the same compound, the TGI [16] was > 100 µM, the TGI [17] was > 100 µM and the TGI [18] was > 100 µM. For the same compound, the TGI [19] was > 100 µM, the TGI [20] was > 100 µM and the TGI [21] was > 100 µM. For the same compound, the TGI [22] was > 100 µM, the TGI [23] was > 100 µM and the TGI [24] was > 100 µM. The TGI [25] was > 100 µM, the TGI [26] was > 100 µM and the TGI [27] was > 100 µM. For the same compound, the TGI [28] was > 100 µM, the TGI [29] was > 100 µM and the TGI [57] was > 100 µM. The TGI [30] was > 100 µM, the TGI [31] was > 100 µM and the TGI [32] was > 100 µM. For the same compound, the TGI [33] was > 100 µM, the TGI [34] was > 100 µM and the TGI [35] was > 100 µM. The TGI [36] was > 100 µM, the TGI [37] was > 100 µM and the TGI [38] was > 100 µM. For the same compound, the TGI [39] was > 100 µM, the TGI [40] was > 100 µM and the TGI [58] was > 100 µM. The TGI [41] was > 100 µM, the TGI [42] was > 100 µM and the TGI [43] was > 100 µM. The TGI [44] was > 100 µM, the TGI [45] was > 100 µM and the TGI [59] was > 100 µM. For the same compound, the TGI [47] was > 100 µM, the TGI [48] was > 100 µM and the TGI [49] was > 100 µM. The TGI [50] was > 100 µM, the TGI [51] was > 100 µM and the TGI [52] was > 100 µM. For the same compound, the TGI [53] was > 100 µM, the TGI [54] was > 100 µM and the TGI [55] was > 100 µM.
